Measurements: patent publication US12459921B2, “Isoindoline compound, preparation method, pharmaceutical composition and use thereof” (SHANGHAI INSTITUTE OF MATERIA MEDICA, CHINESE ACADEMY OF …, priority 2018, dated 2025)

Test system: MM.1S cells
Experiment: Inhibitory effect on the proliferation of MM.1S, MTS cell viability test
Type: cell-based
Conditions: Homo sapiens, MM1.S, 168 h, multiple myeloma MM.1S cells, 7 days incubation, read-out: Tumor cell inhibitory activity
How it was run: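 Viability measured by MTS (OD490 minus OD690 background, 3-4 h) after a 7-day exposure of 20,000 MM.1S cells/well to 5-fold serially diluted compound, 0.2% DMSO final. Inhibition calculated relative to DMSO wells; IC50 curve-fitted, averaged over three repeats.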

SMILES	IC50
COc1cccc(C2(C#N)CCN(CCCCCc3cccc4c3CN(C3CCC(=O)NC3=O)C4=O)CC2)c1OC (stereo not shown) [Example 260, 4-(2,3-dimethoxyphenyl)-1-(5-(2-(2,6-dioxopiperidin-3-yl)-1-oxoisoindoline-4-yl)pentyl)piperidine-4-carbonitrile]	0.1 to 1 µM
CC(=O)N[C@@H](CCCc1cccc2c1CN(C1CCC(=O)NC1=O)C2=O)C(=O)NCc1ccc(N2CCCC2)cc1 (stereo partly drawn) [Example 186, (2S)-2-acetylamino-5-(2-(2,6-dioxopiperidine-3-)-1-oxoisoindoline-4-)-N-(4-(pyrrolidine-1-)benzyl)pentanamide]	0.1 to 1 µM
N#CC1(c2ccc(OC(F)(F)F)cc2Cl)CCN(CCCCc2cccc3c2CN(C2CCC(=O)NC2=O)C3=O)CC1 (stereo not shown) [Example 257, 4-(2-chloro-4-(trifluoromethoxy)phenyl)-1-(4-(2-(2,6-dioxopiperidin-3-yl)-1-oxoisoindolin-4-yl)butyl)piperidine-4-carbonitrile]	0.1 to 1 µM
O=C1CCC(N2Cc3c(CCCCCN4CCC5(CC4)C(=O)NCN5c4ccccc4)cccc3C2=O)C(=O)N1 (stereo not shown) [Example 147, 3-(1-oxo-4-(5-(4-oxo-1-phenyl-1,3,8-triazaspiro[4.5]decane-8-)pentyl)isoindoline-2-)piperidine-2,6-dione]	0.1 to 1 µM
N[C@@H](CCCc1cccc2c1CN(C1CCC(=O)NC1=O)C2=O)C(=O)Nc1ccccc1-c1ccccn1 (stereo partly drawn) [Example 170, (2S)-2-amino-5-(2-(2,6-dioxopiperidine-3-)-1-oxoisoindoline-4-)-N-(2-(pyridine-2-)phenyl)pentanamide]	> 20 µM
COc1ccc(C2(C#N)CCN(CCCCc3cccc4c3CN(C3CCC(=O)NC3=O)C4=O)CC2)c(OC)c1 (stereo not shown) [Example 256, 4-(2,4-dimethoxyphenyl)-1-(4-(2-(2,6-dioxopiperidin-3-yl)-1-oxoisoindoline-4-yl)butyl)piperidine-4-carbonitrile]	1 to 20 µM
O=C1CCC(N2Cc3c(OCCCC(=O)N4CCN(c5cccc(Cl)c5Cl)CC4)cccc3C2=O)C(=O)N1 (stereo not shown) [Example 29, 3-(4-(4-(4-(2,3-dichlorophenyl)piperazine-1-)-4-oxobutoxy)-1-oxoisoindoline-2-)piperidine-2,6-dione]	< 0.1 µM
O=C1CCC(N2Cc3c(CCCCCN4CCC5(CC4)C(=O)Nc4ccccc45)cccc3C2=O)C(=O)N1 (stereo not shown) [Example 121, 3-(1-oxo-4-(5-(2-oxospiro[indoline-3,4′-piperidine]-1′-)pentyl)indoline-2-)piperidine-2,6-dione]	< 0.1 µM
O=C1CCC(N2Cc3c(CCCCCN4CCC5(CC4)OCc4c(Cl)cccc45)cccc3C2=O)C(=O)N1 (stereo not shown) [Example 280, 3-(4-(5-(4-chloro-3H-spiro[isobenzofuran-1,4′-piperidin]-1-yl)pentyl)-1-oxoisoindoline-2-yl)piperidine-2,6-dione]	0.1 to 1 µM
O=C1CCC(N2Cc3c(CCCCN4CCN(c5ccc(F)cc5F)CC4)cccc3C2=O)C(=O)N1 (stereo not shown) [Example 43, 3-(4-(4-(4-(2,4-difluorophenyl)piperazine-1-)butyl)-1-oxoisoindoline-2-)piperidine-2,6-dione]	< 0.1 µM
C[C@]1(N2Cc3c(OCCCN4CCC(C#N)(c5ccccc5Cl)CC4)cccc3C2=O)CCC(=O)NC1=O [Example 80, (S)-4-(2-chlorophenyl)-1-(3-((2-(3-methyl-2,6-dioxopiperidine-3-)-1-oxoisoindoline-4-)oxy)propyl)piperidine-4-carbonitrile]	1 to 20 µM
Cc1ccc2c(c1)C1(CCN(CCCCCOc3cccc4c3CN(C3CCC(=O)NC3=O)C4=O)CC1)OC2 (stereo not shown) [Example 146, 3-(4-((5-(6-methyl-3H-spiro[isobenzofuran-1,4′-piperidine]-1′-)pentyl)oxy)-1-oxoisoindoline-2-)piperidine-2,6-dione]	< 0.1 µM
C[C@]1(N2Cc3c(OCCCN4CCC(C#N)(c5cccc(OC(F)(F)F)c5)CC4)cccc3C2=O)CCC(=O)NC1=O [Example 60, (S)-1-(3-((2-(3-methyl-2,6-dioxopiperidine-3-)-1-oxoisoindoline-4-)oxy)propyl)-4-(3-(trifluoromethoxy)phenyl)piperidine-4-carbonitrile]	1 to 20 µM
Cc1cc(OCCCCOc2cccc3c2C(=O)N(C2CCC(=O)NC2=O)C3=O)c2ccccc2n1 (stereo not shown) [Example 108, 2-(2,6-dioxopiperidine-3-)-4-(4-((2-methylquinoline-4-)oxy)butoxy)isoindoline-1,3-dione]	1 to 20 µM
O=C1CCC(N2Cc3c(CCCCCN4CCN(c5cccc(Cl)c5Cl)CC4)cccc3C2=O)C(=O)N1 (stereo not shown) [Example 26, 3-(4-(5-(4-(2,3-dichlorophenyl)piperazine-1-)pentyl)-1-oxoisoindoline-2-)piperidine-2,6-dione]	< 0.1 µM
CC(=O)N[C@@H](CCCc1cccc2c1CN(C1CCC(=O)NC1=O)C2=O)c1nc2ccncc2[nH]1 (stereo partly drawn) [Example 205, N-((1S)-4-(2-(2,6-dioxopiperidine-3-)-1-oxoisoindoline-4-)-1-(3H-imidazole[4,5-c]pyridine-2-)butyl)acetamide]	> 20 µM
O=C1CCC(N2Cc3c(OCCCC(=O)N4CCc5ccccc54)cccc3C2=O)C(=O)N1 (stereo not shown) [Example 116, 3-(4-(4-(indoline-1-)-4-oxobutoxy)-1-oxoisoindoline-2-)piperidine-2,6-dione]	< 0.1 µM
N#Cc1ccc(N2CCN(CCCCc3cccc4c3CN(C3CCC(=O)NC3=O)C4=O)CC2)cc1 (stereo not shown) [Example 36, 4-(4-(4-(2-(2,6-dioxopiperidine-3-)-1-oxoisoindoline-4-)butyl)piperazine-1-)benzonitrile]	< 0.1 µM
O=C1CCC(N2Cc3c(CCCCN4CCN(c5cccc(Cl)c5)CC4)cccc3C2=O)C(=O)N1 (stereo not shown) [Example 37, 3-(4-(4-(4-(3-chlorophenyl)piperazine-1-)butyl)-1-oxoisoindoline-2-)piperidine-2,6-dione]	< 0.1 µM
O=C1CCC(N2Cc3c(CCCCCN4CCC5(CC4)OC(=O)Nc4ccc(Cl)cc45)cccc3C2=O)C(=O)N1 (stereo not shown) [Example 277, 3-(4-(5-(6-chloro-2-oxo-1,2-dihydrospiro[benzo[1,3]oxazine-4,4′-piperidine]-1′-yl)pentyl)-1-oxoisoindolin-2-yl)piperidine-2,6-dione]	0.1 to 1 µM
O=C1CCC(N2Cc3c(CCCCN4CCC5(CC4)OCc4ccccc45)cccc3C2=O)C(=O)N1 (stereo not shown) [Example 149, 3-(4-(4-(3H-spiro[isobenzofuran-1,4′-piperidine]-1′-)butyl)-1-oxoisoindoline-2-)piperidine-2,6-dione]	0.1 to 1 µM
O=C1CCC(N2Cc3c(CCCCCN4CCOCC4)cccc3C2=O)C(=O)N1 (stereo not shown) [Example 16, 3-(4-(5-morpholinpentyl)-1-oxoisoindoline-2)-piperidine-2,6-dione]	0.1 to 1 µM
O=C1CCC(N2Cc3c(CCCCCN4CCN(c5ccccc5)CC4)cccc3C2=O)C(=O)N1 (stereo not shown) [Example 18, 3-(1-oxo-4-(5-(4-phenylpiperazine-1-)pentyl)indoline-2-)piperidine-2,6-dione]	< 0.1 µM
COc1ccc(C2(C#N)CCN(CCCCCc3cccc4c3CN(C3CCC(=O)NC3=O)C4=O)CC2)c(OC)c1 (stereo not shown) [Example 255, 4-(2,4-dimethoxyphenyl)-1-(5-(2-(2,6-dioxopiperidin-3-yl)-1-oxoisoindoline-4-yl)pentyl)piperidine-4-carbonitrile]	1 to 20 µM
O=C1CCC(N2Cc3c(CCCCCN4CCN(c5noc6ccccc56)CC4)cccc3C2=O)C(=O)N1 (stereo not shown) [Example 231, 3-(4-(5-(4-(benzisoxazole-3-yl)piperazin-1-yl)pentyl)-1-oxoisoindoline-2-yl) piperidine-2,6-dione]	1 to 20 µM
